For assay [1], the system named is Rattus norvegicus. Kind of assay: Antidiabetic activity in high fat diet-STZ induced diabetic Wistar rat model assessed as appearance of apparent intact segments in kidney at 10 mg/kg, ip pretreated with high fat diet for 4 weeks followed by 8 hrs fasting after STZ administration and measured 4 weeks after compound treatment by hematoxylin and eosin staining based microscopic analysis. Type of assay: functional, organism-based.

Assay [2] concerns Rattus norvegicus. Description: Antidiabetic activity in high fat diet-STZ induced diabetic Wistar rat model assessed as ALT level at 30 mg/kg, ip pretreated with high fat diet for 4 weeks followed by 8 hrs fasting after STZ administration and measured 4 weeks after compound treatment (reference value: 152.1 +/- 23.64 IU/L). It counts as functional.
Assay [3] deals with Rattus norvegicus. Kind of assay: Antidiabetic activity in high fat diet-STZ induced diabetic Wistar rat model assessed as creatinine level at 30 mg/kg, ip pretreated with high fat diet for 4 weeks followed by 8 hrs fasting after STZ administration and measured 4 weeks after compound treatment (reference value: 3.88 +/- 0.502 mg%). Type of assay: functional.
Assay [4] relates to Rattus norvegicus. Kind of assay: Antidiabetic activity in high fat diet-STZ induced diabetic Wistar rat model assessed as increase in AC074117.2 lncRNA expression in liver at 10 to 30 mg/kg, ip pretreated with high fat diet for 4 weeks followed by 8 hrs fasting after STZ administration and measured 4 weeks after compound treatment by RT-qPCR analysis. It counts as functional, organism-based. The settings on record: dose 10-30 mg/kg. Background: Real-time PCR tracks product formation cycle by cycle.

For assay [5], the system named is Rattus norvegicus. Description: Antidiabetic activity in ip dosed high fat diet-STZ induced diabetic Wistar rat model assessed as reduction of ZBP1 mRNA expression in adipose tissue pretreated with high fat diet for 4 weeks followed by 8 hrs fasting after STZ administration and measured 4 weeks after compound treatment by RT-qPCR analysis. Type of assay: functional, organism-based. The settings on record: dose 10-30 mg/kg.

In assay [6] the test system is Rattus norvegicus. Description: Antidiabetic activity in ip dosed high fat diet-STZ induced diabetic Wistar rat model assessed as reduction of ZBP1 mRNA expression in kidney pretreated with high fat diet for 4 weeks followed by 8 hrs fasting after STZ administration and measured 4 weeks after compound treatment by RT-qPCR analysis. It counts as functional, organism-based. As to conditions: dose 10-30 mg/kg.

Assay [7] deals with Rattus norvegicus. Description: Antidiabetic activity in high fat diet-STZ induced diabetic Wistar rat model assessed as increase in body weight at 10 to 30 mg/kg, ip pretreated with high fat diet for 4 weeks followed by 8 hrs fasting after STZ administration and measured 4 weeks after compound treatment. Type of assay: functional, organism-based. The settings on record: dose 10-30 mg/kg.

Assay [8] deals with Rattus norvegicus. Kind of assay: Antidiabetic activity in high fat diet-STZ induced diabetic Wistar rat model assessed as reduction in interstitial inflammatory cell infiltration in kidney at 10 mg/kg, ip pretreated with high fat diet for 4 weeks followed by 8 hrs fasting after STZ administration and measured 4 weeks after compound treatment by hematoxylin and eosin staining based microscopic analysis. Type of assay: functional, organism-based.

The subject of assay [9] is Rattus norvegicus. Description: Antidiabetic activity in high fat diet-STZ induced diabetic Wistar rat model assessed as intact hepatocytes at 30 mg/kg, ip pretreated with high fat diet for 4 weeks followed by 8 hrs fasting after STZ administration and measured 4 weeks after compound treatment by hematoxylin and eosin staining based microscopic analysis. Type of assay: functional, organism-based.

The subject of assay [10] is Rattus norvegicus. Description: Antidiabetic activity in high fat diet-STZ induced diabetic Wistar rat model assessed as LDL-cholesterol level at 30 mg/kg, ip pretreated with high fat diet for 4 weeks followed by 8 hrs fasting after STZ administration and measured 4 weeks after compound treatment (reference value: 6.54 +/- 0.918 mmol/L). Type of assay: functional.
In assay [11] the test system is Rattus norvegicus. Description: Antidiabetic activity in ip dosed high fat diet-STZ induced diabetic Wistar rat model assessed as reduction of DDX58 mRNA expression in kidney pretreated with high fat diet for 4 weeks followed by 8 hrs fasting after STZ administration and measured 4 weeks after compound treatment by RT-qPCR analysis. It counts as functional, organism-based. As to conditions: dose 10-30 mg/kg.

Assay [12] concerns Rattus norvegicus. Kind of assay: Antidiabetic activity in high fat diet-STZ induced diabetic Wistar rat model assessed as protection against replacement of hepatocellular necrosis with inflammatory cells at 10 mg/kg, ip pretreated with high fat diet for 4 weeks followed by 8 hrs fasting after STZ administration and measured 4 weeks after compound treatment by hematoxylin and eosin staining based microscopic analysis. It counts as functional, organism-based.

Assay [13] deals with Rattus norvegicus. Description: Antidiabetic activity in high fat diet-STZ induced diabetic Wistar rat model assessed as reduction in adipocyte diameter in adipose tissue at 10 mg/kg, ip pretreated with high fat diet for 4 weeks followed by 8 hrs fasting after STZ administration and measured 4 weeks after compound treatment by hematoxylin and eosin staining based microscopic analysis. It counts as functional, organism-based.

For assay [14], the system named is Rattus norvegicus. Kind of assay: Antidiabetic activity in ip dosed high fat diet-STZ induced diabetic Wistar rat model assessed as reduction of STING mRNA expression in kidney pretreated with high fat diet for 4 weeks followed by 8 hrs fasting after STZ administration and measured 4 weeks after compound treatment by RT-qPCR analysis. Type of assay: functional, organism-based. The settings on record: dose 10-30 mg/kg.

Assay [15] concerns Rattus norvegicus. Kind of assay: Antidiabetic activity in high fat diet-STZ induced diabetic Wistar rat model assessed as mean area percentage of LC3B in kidney at 20 mg/kg, ip pretreated with high fat diet for 4 weeks followed by 8 hrs fasting after STZ administration and measured after 4 weeks of compound treatment by immunohistochemistry based microscopic analysis (reference value: 2.47 +/- 0.356 %). Type of assay: functional.

Assay [16] has as its system Rattus norvegicus. Kind of assay: Antidiabetic activity in high fat diet-STZ induced diabetic Wistar rat model assessed as reduction in tubular dilation in kidney at 30 mg/kg, ip pretreated with high fat diet for 4 weeks followed by 8 hrs fasting after STZ administration and measured 4 weeks after compound treatment by hematoxylin and eosin staining based microscopic analysis. Type of assay: functional, organism-based.

Assay [17] has as its system Rattus norvegicus. Kind of assay: Antidiabetic activity in high fat diet-STZ induced diabetic Wistar rat model assessed as mean area percentage of LC3B in kidney at 30 mg/kg, ip pretreated with high fat diet for 4 weeks followed by 8 hrs fasting after STZ administration and measured after 4 weeks of compound treatment by immunohistochemistry based microscopic analysis (reference value: 2.47 +/- 0.356 %). Type of assay: functional.

Assay [18] deals with Rattus norvegicus. Kind of assay: Antidiabetic activity in ip dosed high fat diet-STZ induced diabetic Wistar rat model assessed as reduction of miR-1976 expression in kidney pretreated with high fat diet for 4 weeks followed by 8 hrs fasting after STZ administration and measured 4 weeks after compound treatment by RT-qPCR analysis. It counts as functional, organism-based. As to conditions: dose 10-30 mg/kg.

The subject of assay [19] is Rattus norvegicus. Kind of assay: Antidiabetic activity in high fat diet-STZ induced diabetic Wistar rat model assessed as HDL-cholesterol level at 20 mg/kg, ip pretreated with high fat diet for 4 weeks followed by 8 hrs fasting after STZ administration and measured 4 weeks after compound treatment (reference value: 0.688 +/- 0.288 mmol/L). It counts as functional.
Assay [20] relates to Rattus norvegicus. Description: Antidiabetic activity in high fat diet-STZ induced diabetic Wistar rat model assessed as reduction in persistent tubular dilation in kidney at 20 mg/kg, ip pretreated with high fat diet for 4 weeks followed by 8 hrs fasting after STZ administration and measured 4 weeks after compound treatment by hematoxylin and eosin staining based microscopic analysis. It counts as functional, organism-based.

The subject of assay [21] is Rattus norvegicus. Kind of assay: Antidiabetic activity in high fat diet-STZ induced diabetic Wistar rat model assessed as LDL-cholesterol level at 20 mg/kg, ip pretreated with high fat diet for 4 weeks followed by 8 hrs fasting after STZ administration and measured 4 weeks after compound treatment (reference value: 6.54 +/- 0.918 mmol/L). It counts as functional.
Assay [22] relates to Rattus norvegicus. Description: Antidiabetic activity in ip dosed high fat diet-STZ induced diabetic Wistar rat model assessed as reduction of miR-1976 expression in liver pretreated with high fat diet for 4 weeks followed by 8 hrs fasting after STZ administration and measured 4 weeks after compound treatment by RT-qPCR analysis. The settings on record: dose 10-30 mg/kg. It counts as functional, organism-based.

For assay [23], the system named is Rattus norvegicus. Kind of assay: Antidiabetic activity in high fat diet-STZ induced diabetic Wistar rat model assessed as protection against vacuolar changes throughout hepatic lobules at 10 mg/kg, ip pretreated with high fat diet for 4 weeks followed by 8 hrs fasting after STZ administration and measured 4 weeks after compound treatment by hematoxylin and eosin staining based microscopic analysis. It counts as functional, organism-based.

Calls of active or inactive are those of the source. No cut-off for these calls is given here.

`O[C@@H]1[C@@H](O)[C@H](OC/C=C/c2ccccc2)O[C@H](CO[C@@H]2OC[C@H](O)[C@H](O)[C@H]2O)[C@H]1O`: the result in the assay on Rattus norvegicus [1], in the assay on Rattus norvegicus [12], in the assay with Rattus norvegicus [13] and in the assay on Rattus norvegicus [23] was inactive. For the same compound, the Activity was 18.13 IU/L in the assay on Rattus norvegicus [2]; 0.769 mg% in the assay on Rattus norvegicus [3]; “Dose-Dependent Effect” in the assay with Rattus norvegicus [5]; “Dose-Dependent Effect” in the assay with Rattus norvegicus [6]; 1.3 mmol/L with Rattus norvegicus [10]; “Dose-Dependent Effect” in the assay with Rattus norvegicus [11]. Moreover, the Activity entry is “Dose-Dependent Effect” in the assay on Rattus norvegicus [14]; 11.23% in the assay with Rattus norvegicus [15]; 12.7% with Rattus norvegicus [17]; “Dose-Dependent Effect” with Rattus norvegicus [18]; 1.06 mmol/L with Rattus norvegicus [19]; 2.13 mmol/L with Rattus norvegicus [21]. For the same compound, the Activity entry with Rattus norvegicus [22] is “Dose-Dependent Effect”. Besides, the outcome in the assay with Rattus norvegicus [4], with Rattus norvegicus [7], in the assay with Rattus norvegicus [8], in the assay on Rattus norvegicus [9], in the assay on Rattus norvegicus [16] and in the assay with Rattus norvegicus [20] was Active.

Values taken from ChEMBL document CHEMBL5532761, “Rosavin improves insulin resistance and alleviates hepatic and kidney damage via modulating the cGAS-STING pathway and autophagy signaling in HFD/STZ-induced T2DM animals” (2024).
